Measurements published in patent publication US20070299072A1, “KV1.5 POTASSIUM CHANNEL INHIBITORS” (Wyeth, priority 2006, published 2007).

Assays:
Type in all cases: cell-based
L-type calcium channels = assay: FLIPR L-type Calcium Channel Assay (calcium influx in HL-1 cells after KCl); conditions: read-out: L-type Ca2+ IC50
Method: HL-1 cells expressing endogenous L-type calcium channels are removed from culture flasks using trypsin, plated on fibronectin/gelatin-coated, clear-bottomed, black-walled 96-well microplates in Claycomb media (JRH Biosciences #51800) containing 10% fetal bovine serum, 4 mM L-glutamine, and 10 μM norepinephrine, and grown to confluency overnight. The next day, growth medium is aspirated from confluent cell monolayers and replaced with 100 μL per well Tyrode's solution (in mM: 130 NaCl, 4 KCl, 1.8 CaCl2, 1.0 MgCl2, 20 HEPES, 10 glucose, pH 7.35) and 50 μL per well FLIPR Calcium Assay kit, component A (#R-8033, Molecular Devices Corporation) and incubated for 60 min. in a 5% CO2 37° C. incubator. 50 μL per well test compounds are added to the plates and further incubated for 15 min. in a 5% CO2 37° C. incubator. All final solutions contain the anion exchange inhibitor, probenecid (2.5 mM). The 96-well plates are then placed in the center position of the FLIPR 1 (Fluorometric Imaging Plate Reader, Molecular Devices Corporation). Cell monolayers in each well are simultaneously illuminated at 488 nm with an Argon ion laser, and fluorescence emission is monitored using a 510-570 nm bandpass filter and a cooled CCD camera. To depolarize the plasma membrane and activate L-type calcium channels, 50 μL per well of 20 mM KCl (final concentration) are dispensed simultaneously to all 96 wells using the FLIPR's automatic 96-well pipettor. Fluorescence measurements are captured for 5 min. following KCl addition. Calcium influx, expressed as % control, is calculated for each concentration of test compound and concentration-response curves and IC50 values are generated using GraphPad Prism 4.0.

HERG = target: T1, HERG (Homo sapiens, UniProt Q12809); assay: HERG Patch Clamp EP (whole cell patch clamp, tail currents; single point at 10 μM and IC50); conditions: for inhibition at 10 µM: human, HEK cells stably overexpressing HERG, single point at 10 μM, HERG in HEK cells, read-out: HERG % Inhib. @ 10 μM; for IC50: concentration response
T1 construct: expressed in transfected cells; host or cells: HEK cells
T1 sequence (Q12809 whole entry): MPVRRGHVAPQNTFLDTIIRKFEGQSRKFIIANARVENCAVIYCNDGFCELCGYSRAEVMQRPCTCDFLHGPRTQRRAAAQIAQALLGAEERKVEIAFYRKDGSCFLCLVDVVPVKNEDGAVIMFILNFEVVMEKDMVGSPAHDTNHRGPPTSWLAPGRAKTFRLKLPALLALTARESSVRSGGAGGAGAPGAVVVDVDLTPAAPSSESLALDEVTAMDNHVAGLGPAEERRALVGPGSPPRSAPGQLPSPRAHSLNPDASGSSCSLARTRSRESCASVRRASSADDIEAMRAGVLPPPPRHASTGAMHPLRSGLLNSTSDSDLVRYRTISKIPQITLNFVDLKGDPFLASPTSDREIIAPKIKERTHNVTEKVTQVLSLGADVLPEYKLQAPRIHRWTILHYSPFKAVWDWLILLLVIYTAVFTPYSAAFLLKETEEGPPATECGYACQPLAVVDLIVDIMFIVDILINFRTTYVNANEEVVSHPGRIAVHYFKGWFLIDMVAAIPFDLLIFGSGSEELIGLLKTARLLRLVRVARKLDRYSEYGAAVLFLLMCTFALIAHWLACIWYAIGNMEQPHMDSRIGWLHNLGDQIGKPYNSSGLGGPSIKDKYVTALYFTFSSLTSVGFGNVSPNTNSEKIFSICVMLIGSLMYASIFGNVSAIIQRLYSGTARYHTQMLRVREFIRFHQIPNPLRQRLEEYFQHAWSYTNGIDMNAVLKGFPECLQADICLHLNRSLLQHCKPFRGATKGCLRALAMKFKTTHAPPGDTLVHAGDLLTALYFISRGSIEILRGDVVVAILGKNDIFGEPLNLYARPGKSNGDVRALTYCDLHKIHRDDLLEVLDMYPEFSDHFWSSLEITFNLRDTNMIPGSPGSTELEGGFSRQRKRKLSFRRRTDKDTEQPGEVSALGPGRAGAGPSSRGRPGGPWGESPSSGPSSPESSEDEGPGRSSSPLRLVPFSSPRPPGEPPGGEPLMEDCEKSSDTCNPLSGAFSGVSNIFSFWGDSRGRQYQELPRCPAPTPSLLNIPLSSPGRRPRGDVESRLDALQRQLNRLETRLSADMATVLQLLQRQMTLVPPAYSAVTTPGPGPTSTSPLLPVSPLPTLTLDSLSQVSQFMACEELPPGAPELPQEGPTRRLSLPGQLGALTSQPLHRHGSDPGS
Excerpt: The external solution is standard Tyrodes solution.

Kv1.5 = target: T2, Kv1.5 (Homo sapiens, UniProt P22460); assay: Kv1.5 Patch Clamp EP (whole cell patch clamp; single point at 1 μM and IC50); conditions: for IC50: concentration response; for inhibition at 1 µM: single point at 1.0 μM, Kv1.5 stably over expressed in HEK or LTK- cells
T2 construct: expressed in transfected cells; host or cells: HEK or LTK- cells
T2 sequence (P22460 whole entry): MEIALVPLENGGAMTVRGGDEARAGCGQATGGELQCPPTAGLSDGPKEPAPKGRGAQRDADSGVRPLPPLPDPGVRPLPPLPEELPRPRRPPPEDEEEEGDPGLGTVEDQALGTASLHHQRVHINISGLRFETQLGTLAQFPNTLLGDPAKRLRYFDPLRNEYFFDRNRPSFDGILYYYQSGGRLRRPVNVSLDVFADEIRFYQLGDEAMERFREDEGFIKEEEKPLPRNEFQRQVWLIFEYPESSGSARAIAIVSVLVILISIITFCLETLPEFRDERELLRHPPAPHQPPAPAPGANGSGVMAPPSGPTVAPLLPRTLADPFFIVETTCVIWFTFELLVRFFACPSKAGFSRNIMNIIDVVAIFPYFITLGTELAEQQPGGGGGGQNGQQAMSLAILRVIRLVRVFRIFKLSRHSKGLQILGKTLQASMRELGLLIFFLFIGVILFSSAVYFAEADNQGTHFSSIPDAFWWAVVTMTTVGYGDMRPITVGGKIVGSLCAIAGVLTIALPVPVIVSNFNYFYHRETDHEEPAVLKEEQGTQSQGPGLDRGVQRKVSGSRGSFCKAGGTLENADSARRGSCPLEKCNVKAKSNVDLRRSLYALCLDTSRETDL
Method: The external solution is standard Tyrodes solution. […] Inhibition was measured at the end of the 1 second pulses and expressed relative to controls. Initial Kv1.5 inhibition is estimated by single point determinations done at 1 μM.

| SMILES | IC50 (L-type calcium channels) [µM] | inhibition at 10 µM (HERG) [%] | IC50 (Kv1.5) [µM] | inhibition at 1 µM (Kv1.5) [%] | IC50 (HERG) [µM] |
| --- | --- | --- | --- | --- | --- |
| COc1ccc(CCN2C(=O)C3(CCN(C(=O)NC(C)C)CC3)N(C)C2c2ccc(C3CC3)cc2)cc1 (stereo not drawn) [Compound 16, 2-(4-Cyclopropylphenyl)-3-[2-(4-methoxyphenyl)ethyl]-1-methyl-4-oxo-1,3,8-triaza-spiro[4.5]decane-8-carboxylic acid isopropylamide] | 13 | 48 | 0.319 | 92 |  |
| COc1ccc(CCN2C(=O)C3(CCN(C(=O)NC4CCCC4)CC3)N(C)C2c2ccc(C3CC3)cc2)cc1 (stereo not drawn) [Compound 20, 2-(4-Cyclopropylphenyl)-3-[2-(4-methoxyphenyl)ethyl]-1-methyl-4-oxo-1,3,8-triaza-spiro[4.5]decane-8-carboxylic acid cyclopentylamide] | 8 | 86 | 0.186 | 93 | 4 |
| COc1ccc(CCN2C(=O)C3(CCN(C(=O)N4CCC4)CC3)N(C)C2c2ccc(C3CC3)cc2)cc1 (stereo not drawn) [Compound 21, 2-(4-cyclopropylphenyl)-3-[2-(4-methoxyphenyl)ethyl]-1-methyl-8-(azetidin-1-ylcarbonyl)-1,3,8-triaza-spiro[4.5]decan-4-one] | 11 | 54 |  | 97 |  |
| COc1ccc(CCN2C(=O)C3(CCN(C(=O)N4CCN(C)CC4)CC3)N(C)C2c2ccc(C3CC3)cc2)cc1 (stereo not drawn) [Compound 22, 2-(4-Cyclopropylphenyl)-3-[2-(4-methoxyphenyl)ethyl]-1-methyl-8-[(4-methylpiperazin-1-yl)carbonyl]-1,3,8-triaza-spiro[4.5]decan-4-one] | 18 | 58 |  | 51 |  |
| COc1ccc(CCN2C(=O)C3(CCN(C(=O)N4CCCC4)CC3)N(C)C2c2ccc(C3CC3)cc2)cc1 (stereo not drawn) [Compound 23, 2-(4-Cyclopropylphenyl)-3-[2-(4-methoxyphenyl)ethyl]-1-methyl-8-(pyrrolidin-1-ylcarbonyl)-1,3,8-triaza-spiro[4.5]decan-4-one] | 6.6 | 77 | 0.181 | 96 | 6.2 |
| COc1ccc(CCN2C(=O)C3(CCN(C(=O)N4CCOCC4)CC3)N(C)C2c2ccc(C3CC3)cc2)cc1 (stereo not drawn) [Compound 24, 2-(4-Cyclopropylphenyl)-3-[2-(4-methoxyphenyl)ethyl]-1-methyl-8-(morpholin-4-ylcarbonyl)-1,3,8-triaza-spiro[4.5]decan-4-one] | 13 | 27 |  | 82 |  |
| CONC(=O)N1CCC2(CC1)C(=O)N(CCc1ccc(OC)cc1)C(c1ccc(C3CC3)cc1)N2C (stereo not drawn) [Compound 25, 2-(4-cyclopropylphenyl)-N-methoxy-3-[2-(4-methoxyphenyl)ethyl]-1-methyl-4-oxo-1,3,8-triazaspiro[4.5]decane-8-carboxamide] | 17 | 23 |  | 82 |  |
| COc1ccc(CCN2C(=O)C3(CCN(C(=O)NO)CC3)N(C)C2c2ccc(C3CC3)cc2)cc1 (stereo not drawn) [Compound 26, 2-(4-Cyclopropylphenyl)-N-hydroxy-3-[2-(4-methoxyphenyl)ethyl]-1-methyl-4-oxo-1,3,8-triazaspiro[4.5]decane-8-carboxamide] | 24 | 5 |  | 65 |  |
| CCONC(=O)N1CCC2(CC1)C(=O)N(CCc1ccc(OC)cc1)C(c1ccc(C3CC3)cc1)N2C (stereo not drawn) [Compound 27, 2-(4-cyclopropylphenyl)-N-ethoxy-3-(4-methoxyphenethyl)-1-methyl-4-oxo-1,3,8-triazaspiro[4.5]decane-8-carboxamide] | 20 | 35 |  | 87 |  |
| COc1ccc(CCN2C(=O)C3(CCN(C(=O)NNC(=O)OC(C)(C)C)CC3)N(C)C2c2ccc(C3CC3)cc2)cc1 (stereo not drawn) [Compound 29, tert-Butyl 2-({2-(4-cyclopropylphenyl)-3-[2-(4-methoxyphenyl)ethyl]-1-methyl-4-oxo-1,3,8-triazaspiro[4.5]dec-8-yl}carbonyl)hydrazine carboxylate] | 8 | 31 |  | 83 |  |
| COc1ccc(CCN2C(=O)C3(CCN(C(N)=NC#N)CC3)N(C)C2c2ccc(OC)cc2)cc1 (stereo not drawn) [Compound 30, N′-cyano-2-(4-methoxyphenyl)-3-[2-(4-methoxyphenyl)ethyl]-1-methyl-4-oxo-1,3,8-triazaspiro[4.5]decane-8-carboximidamide] | 21 | 91 | 0.166 | 93 | 6 |
| COc1ccc(CCN2C(=O)C3(CCN(C(N)=NC#N)CC3)N(C)C2c2ccc(C3CC3)cc2)cc1 (stereo not drawn) [Compound 31, 8-(Cyano-1-carboxamidine)-2-(4-cyclopropylphenyl)-3-[2-(4-methoxyphenyl)-ethyl]-1-methyl-1,3,8-triaza-spiro[4.5]decan-4-one] | 26 | 25 |  | 75 |  |
| COc1ccc(CCN2C(=O)C3(CCN(S(C)(=O)=O)CC3)N(C)C2c2ccc(C3CC3)cc2)cc1 (stereo not drawn) [Compound 32, 2-(4-cyclopropylphenyl)-8-methanesulfonyl-3-[2-(4-methoxy-phenyl)ethyl]-1-methyl-1,3,8-triaza-spiro[4.5]decan-4-one] | 13 | 57 |  | 90 |  |
| COc1ccc(CCN2C(=O)C3(CCN(S(C)(=O)=O)CC3)N(C)C2c2ccc(C(C)(C)C)cc2)cc1 (stereo not drawn) [Compound 33, 2-(4-tert-Butylphenyl)-8-methanesulfonyl-3-[2-(4-methoxyphenyl)ethyl]-1-methyl-1,3,8-triaza-spiro[4.5]decan-4-one] | 25 | 54 |  | 80 |  |
| COc1ccc(CCN2C(=O)C3(CCN(S(C)(=O)=O)CC3)N(C)C2c2ccc(C(F)(F)F)cc2)cc1 (stereo not drawn) [Compound 34, 2-(4-Trifluoromethylphenyl)-8-methanesulfonyl-3-[2-(4-methoxyphenyl)ethyl]-1-methyl-1,3,8-triaza-spiro[4.5]decan-4-one] | 18 | 50 |  | 80 |  |
| CCOC(=O)N1CCC2(CC1)C(=O)N(CCc1ccc(OC)cc1)C(c1ccc(C3CC3)cc1)N2C (stereo not drawn) [Compound 35, Ethyl 2-(4-cyclopropylphenyl)-3-[2-(4-methoxyphenyl)ethyl]-1-methyl-4-oxo-1,3,8-triazaspiro[4.5]decane-8-carboxylate] | 30 | 65 |  | 96 |  |
| COc1ccc(CCN2C(=O)C3(CCN(C(=O)OC(C)(C)C)CC3)N(C)C2c2ccc(OC)cc2)cc1 (stereo not drawn) [Compound 37, tert-Butyl 2-(4-methoxyphenyl)-3-[2-(4-methoxyphenyl)ethyl]-1-methyl-4-oxo-1,3,8-triazaspiro[4.5]decane-8-carboxylate] | 14 | 12 |  | 83 |  |
| COc1ccc(CCN2C(=O)C3(CCN(C(=O)c4ccno4)CC3)N(C)C2c2ccc(C3CC3)cc2)cc1 (stereo not drawn) [Compound 42, 2-(4-Cyclopropylphenyl)-8-(isoxazol-5-yl-carbonyl)-3-[2-(4-methoxyphenyl)ethyl]-1-methyl-1,3,8-triazaspiro[4.5]decan-4-one] | 23 | 81 |  | 94 |  |
| CC(=O)N1CCC2(CC1)C(=O)N(CCCc1ccccc1)C(c1ccc(C3CC3)cc1)N2C (stereo not drawn) [Compound 44, 8-Acetyl-2-(4-cyclopropylphenyl)-3-(3-phenylpropyl)-1-methyl-1,3,8-triazaspiro-[4.5]decan-4-one] | 15 | 61 |  | 73 |  |
| CN1C(c2ccc(C3CC3)cc2)N(CCCc2ccccc2)C(=O)C12CCN(C(=O)C1CC1)CC2 (stereo not drawn) [Compound 45, 8-Cyclopropanecarbonyl-2-(4-cyclopropylphenyl)-3-(3-phenylpropyl)-1-methyl-1,3,8-triazaspiro-[4.5]decan-4-one] | 6.2 | 87 | 0.287 | 77 | 3.3 |
| COc1ccc(C2N(CCCc3ccccc3)C(=O)C3(CCN(C(=O)C4CC4)CC3)N2C)cc1 (stereo not drawn) [Compound 46, 8-Cyclopropanecarbonyl-2-(4-methoxyphenyl)-3-(3-phenylpropyl)-1-methyl-1,3,8-triazaspiro-[4.5]decan-4-one] | 17 | 32 |  | 68 |  |
